Experimental data published in patent publication US20250345350A1, “TREATING PAIN ASSOCIATED WITH CENTRAL SENSITIZATION” (Medicon Pharmaceuticals, Inc., priority 2022, published 2025).

Columns and labels:
[1] = tested on: chronic constriction injury-induced PTPN in C57BL/6J mice; assay: PWT of operated limb, PS applied to contralateral hind paw, PTPN model (Example 8); assay type: in vivo, mouse
Experimental: Group 2: vehicle control (n=6) • 3. Group 3: PS 8% (n=6)
The PWT test was performed on day 4.
Additionally, in a second study, the speed at which PS can treat pain associated with PTPN was assessed by assessing the effect of PS on mechanical allodynia shortly after topical administration of PS. As above, PTPN was induced using chronic constriction injury, by ligating the left sciatic nerve, to induce neuropathic pain manifested as allodynia affecting the left limb of the mice. PS (as a 5% gel) was applied only once onto the contralateral (right) hind paw of mice, prior to determining mechanical allodynia on the operated limb at different time points post-dosing.
Group 2: PS 5%, assessed at t=0.5 h post-dosing (n=5) • 3. Group 3: PS 5%, assessed at t=1.0 h post-dosing (n=5) • 4. Group 4: PS 5%, assessed at t=2.0 h post-dosing (n=5)

[2] = Preliminary in vivo evidence, topical PS hydrogel, PHN (Example 19)
[3] = tested on: paclitaxel-induced central sensitization in C57/BL mice; assay: Paw withdrawal threshold (von Frey), paclitaxel model, topical PS (Example 1); details: day 10, about 30 min after last application; PS 8% hydrogel topically to both hind paws 3 times a day for 10 days
Experimental: The paclitaxel was administered into all study groups once a day for 3 days.
The first doses were administered 2 days after the last administration of paclitaxel.
The study groups were as follows: • 1. Group 1: paclitaxel only (n=9) • 2. Group 2: paclitaxel plus vehicle (n=10) • 3.
In order to determine the outcome of the treatment, pain threshold responses were measured using the well-established method of von Frey filaments. […] The results of the PWT test are expressed as force applied (gm). […] The data is expressed as percent change from the respective baseline value.

## CCOP(=O)(OCC)OCCCCOC(=O)CC1=C(C)/C(=C/c2ccc([S+](C)[O-])cc2)c2ccc(F)cc21 (stereo not drawn) [PS, phosphosulindac]
[1]; day 4, operated left limb, PS 8% gel on contralateral (right) hind paw 3 times a day for 4 days
  PWT, g Mean ± SEM: 1.16 ± 0.04 g
[1]; t = 0.5 h post-dosing, PS 5% gel applied once on contralateral hind paw
  PWT, g Mean ± SEM: 1.24 ± 0.10 g
[1]; t = 1.0 h post-dosing, PS 5% gel applied once on contralateral hind paw
  PWT, g Mean ± SEM: 1.16 ± 0.16 g
[1]; t = 2.0 h post-dosing, PS 5% gel applied once on contralateral hind paw
  PWT, g Mean ± SEM: 1.10 ± 0.19 g
[2]
  analgesic effect on neuropathic pain associated with PHN: striking analgesic effect
[3]
  PWT, % baseline Mean ± SEM: 102.55 ± 4.92 % baseline
